Assay results taken from patent US5444042A, “Method of treatment of neurodegeneration with calpain inhibitors” (Cortex Pharmaceuticals, priority 1994, dated 1995).
Read-outs that look alike come from different tables or passages of the source.

How the values were obtained:
[1] = molecular target: T1, Papain (Carica papaya, UniProt P00784); experiment: Papain inhibition, Ki by Dixon plot (Table PKC1); type: biochemical; conditions: 5 mM cysteine, 25° C.
T1 sequence (P00784 134-345): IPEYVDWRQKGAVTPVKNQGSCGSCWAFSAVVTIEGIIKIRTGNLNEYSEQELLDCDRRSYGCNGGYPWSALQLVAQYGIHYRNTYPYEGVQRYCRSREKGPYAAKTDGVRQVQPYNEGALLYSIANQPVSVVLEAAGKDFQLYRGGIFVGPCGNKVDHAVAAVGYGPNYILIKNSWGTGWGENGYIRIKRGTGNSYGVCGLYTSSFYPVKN
Procedure: (§1) Various concentrations of inhibitors in dimethylsulfoxide (DMSO) were added to the assay mixture, which contained buffer and substrate. The reaction was started by the addition of the enzyme and the hydrolysis rates were followed spectrophotometrically or fluorimetrically. 88 mM KH2 PO4, 12 mM Na2 HPO4, 1.33 mM EDTA, 2.7 mM cysteine, pH 6.0 was used as a buffer for cathepsin B; and 20 mM Hepes, 10 mM CaCl2, 10 mM β-mercaptoethanol, pH 7.2 buffer was utilized for calpain I and calpain II.
(§2) All peptide thioester hydrolysis rates were measured with assay mixtures containing 4,4'-dithiodipyridine [e324=19800 M-1 cm-1; Grasetti & Murray, Arch. Biochem. Biophys. 119, pp 41-49 (1967)]. Papain was assayed with Bz-Arg-AMC or Bz-Arg-NA [Kanaoka et al., Chem. Pharm. Bull. 25, 3126-3128 (1977)], and the AMC (7-amino-4-methylcoumarin) release was followed fluorimetrically (excitation at 380 nm, and emission at 460 nm). Cathepsin B was assayed with Z-Arg-Arg-AFC [Barrett and Kirschke, Methods Enzymol. 80, 535-561 (1981)], and the AFC (7-amino-4-trifluoromethylcoumarin) release was followed fluorimetrically (excitation at 400 nm, and emission at 505 nm). Calpain I from human erythrocytes and calpain II from rabbit were assayed using Suc-Leu-Tyr-AMC [Sasaki et al., J. Biol. Chem. 259, 12489-12494 (1984), hereby incorporated by reference], and the AMC (7-amino-4-methylcoumarin) release was followed fluorimetrically (excitation at 380 nm, and emission at 460 nm). Enzymatic hydrolysis rates were measured at various substrate and inhibitor concentrations, and Ki values were determined by Dixon plot.
The inhibition constants for papain shown in Table PKC1 were measured in 0.05M Tris-HCl, pH 7.5 buffer, containing 2 mM EDTA, 5 mM cysteine (freshly prepared), 1% DMSO, at 25° C., using N^α -Benzoyl-Arg-AMC as a substrate, except that those values of inhibition constants for papain marked with an "e" in Table PKC1 were measured in 50 mM Tris-HCl, pH 7.5 buffer, containing 20 mM EDTA, 5 mM cysteine, 9% DMSO, at 25° C., using N^α -Benzoyl-Arg-NA as a substrate.

[2] = test system: Calpain within platelets; experiment: Platelet membrane permeation assay, spectrin proteolysis (Examples 4A, 4B); type: cell-based, rat; conditions: for effect on intracellular (platelet) Calpain: concentration not given; for inhibition of Calpain within platelets: A23187 1 μM; for IC50: concentration at which 50% of the Calpain activation present in controls occurred
Procedure: Platelets were isolated by a modification of the method of Ferrell and Martin, J Biol. Chem., 264:20723-20729 (1989), the disclosure of which is hereby incorporated by reference. Blood (15-20 ml) was drawn from male Sprague-Dawley rats into 100 mM EDTA-citrate containing 10 units heparin, and centrifuged 30 minutes at 1600 rpm at room temperature. The plasma was resuspended in 15 ml buffer 1 (136 mM NaCl, 2.7 mM KCl, 0.42 mM NaH2 PO4, 12 mM NaHCO3, 2 mM MgCl2, 2 mg/ml BSA (Sigma), 5.6 mM glucose, 22 mM Na3 Citrate pH 6.5) and platelets were isolated at 2200 rpm at room temperature of 25 minutes. Platelets were resuspended to 10^7 cells/ml in buffer 2 (136 mM NaCl, 2.7 mM KCl, 0.42 NaH2 PO4, 12 mM NaHCO3, 2 mM MgCl, 1 mg/ml BSA, 5.6 mM glucose, 20 mM HEPES pH 7.4) and allowed to "rest" for a minimum of 10 minutes at room temperature before use.
Platelets were incubated for 5 minutes in the presence of inhibitor. In order to provide sufficient intracellular calcium to activate Calpain, the calcium ionophore A23187 was added to a final concentration of 1 μM. After a further 5 minute incubation, the platelets were harvested by centrifugation (1 min 10,000×g) and resuspended in 10% sodium dodecyl sulfate, 10 mM Tris pH=8.0, 5% β-mercaptoethanol, 0.02% bromophenol blue, and heated to 95° C. for 5 min. Samples were subjected to SDS-PAGE on 6% mini gels and transferred to nitrocellulose (Schleicher and Schuell BAS3) for 2 hours at 100 mA/gel in an LKB Novablot. Filters were blocked for 10 minutes in 0.25% gelatin, 1% BSA, 0.25% Triton X100, 0.9% NaCl, 10 mM Tris-Cl pH 7.5, incubated overnight in the same solution containing antibody to rat spectrin, washed 3×10 minutes with 10 mM Tris-Cl pH 7.5, 0.5 % Triton X100, incubated 4 hours in wash buffer plus alkaline phosphatase conjugated goat anti-rabbit antibody (Biorad), and washed as above. Filters were developed using the Biorad AP conjugate substrate kit. Spectrin immunoreactivity on the filters was quantitated by densitometry.

[3] = test system: Calpain in crude brain extracts; experiment: Ca2+-stimulated spectrin proteolysis in crude brain extracts (Example 2); type: biochemical; conditions: 100 μM
Procedure: The activity of Calpain in crude brain extracts was measured by examining the Ca^2+ -stimulated proteolysis of the endogenous substrate spectrin. Brain tissue was homogenized in 10 mM Tris pH=7.4, 0.32M sucrose, 1 mM EGTA, 1 mM dithiothreitol and the nuclei and debris removed by low speed centrifugation. […] Proteolysis of spectrin was evaluated by western blot as described by Seubert, et at. (Brain Research, 459:226-232, 1988), the disclosure of which is hereby incorporated by reference. Briefly, a known quantity of a spectrin-containing sample treated with Calpain is separated by SDS-PAGE and immunoblotted with anti-spectrin antibody. The amount of spectrin immunoreactivity found corresponding to the characteristic BDP's is indicative of the amount of […] activity present in the sample. An examplary method for quantitating BDP's is to assay Spectrin BDP's by homogenizing brain parts in 20 mM Tris pH=7.2, 0.32M sucrose, 50 μM Ac-Leu-Leu-nLeu-H on ice. Homogenates are then mixed 1:1 with 10% SDS, 5% β-mercaptoethanol, 10% glycerol, 10 mM Tris pH=8.0, 0.5% bromophenolblue, heated to 95° C., and subjected to electrophoresis in 41/2% polyacrylamide gels. The proteins in the gels are transferred to nitrocellulose and the spectrin and BDP's detected using a rabbit polyclonal anti-spectrin antibody and established immunodetection methods. The amount of spectrin and BDP's in each sample can be quantitated by densitrometric scanning of the developed nitrocellulose.

[4] = molecular target: T2, Cathepsin B (Bos taurus, UniProt P07688); experiment: Cathepsin B inhibition, Z-Arg-Arg-AFC (Table PKC1); type: biochemical; conditions: pH 6.0 phosphate buffer, substrate Z-Arg-Arg-AFC; read-out: Ki CB (Cathepsin B)
Procedure: as §1, §2

[5] = molecular target: Chym (Bos taurus, UniProt P00766); experiment: Chym KI (Table 1B(ii)); type: biochemical
Excerpt: (§3) We tested the ability of an additional group of Peptide Keto-Compounds to inhibit several proteases in order to evaluate their specificity for Calpain.

[6] = molecular target: Calpain II; experiment: Calpain II KI (Table 1B(ii)); type: biochemical
Excerpt: as §3

[7] = molecular target: PP Elastase (Sus scrofa, UniProt P00772); experiment: PP Elastase KI (Table 1B(ii)); type: biochemical
Excerpt: as §3

[8] = Stability in plasma; type: in vitro ADME; conditions: unit assumed
Excerpt: We determined the haft-life of several Peptide Keto-Compounds in both plasma and liver homogenates.

[9] = molecular target: T3, Calpain I (Homo sapiens, UniProt P07384); experiment: Calpain I KI (Table 1B(ii)); type: biochemical; conditions: Table 1B(ii)
T3 sequence (P07384 1-714): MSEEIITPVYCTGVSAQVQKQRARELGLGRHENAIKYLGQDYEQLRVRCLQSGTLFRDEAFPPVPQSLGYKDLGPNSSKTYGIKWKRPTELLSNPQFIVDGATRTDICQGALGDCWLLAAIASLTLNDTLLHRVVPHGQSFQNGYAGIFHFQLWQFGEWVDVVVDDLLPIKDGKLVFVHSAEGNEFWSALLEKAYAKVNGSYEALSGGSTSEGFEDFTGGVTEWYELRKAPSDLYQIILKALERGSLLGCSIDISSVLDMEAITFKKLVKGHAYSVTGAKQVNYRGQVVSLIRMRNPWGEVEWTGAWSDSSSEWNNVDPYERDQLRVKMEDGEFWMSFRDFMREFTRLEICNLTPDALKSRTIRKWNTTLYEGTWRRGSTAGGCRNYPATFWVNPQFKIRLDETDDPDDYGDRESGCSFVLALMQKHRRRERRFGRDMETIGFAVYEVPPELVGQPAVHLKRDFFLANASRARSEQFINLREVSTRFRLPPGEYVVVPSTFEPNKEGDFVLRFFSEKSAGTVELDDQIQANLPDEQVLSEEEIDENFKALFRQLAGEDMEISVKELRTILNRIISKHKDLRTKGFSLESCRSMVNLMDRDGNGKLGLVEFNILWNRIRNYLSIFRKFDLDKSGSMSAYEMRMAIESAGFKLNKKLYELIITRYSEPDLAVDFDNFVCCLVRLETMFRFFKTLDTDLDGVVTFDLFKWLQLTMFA
T3 sequence (P04632 1-268 partner): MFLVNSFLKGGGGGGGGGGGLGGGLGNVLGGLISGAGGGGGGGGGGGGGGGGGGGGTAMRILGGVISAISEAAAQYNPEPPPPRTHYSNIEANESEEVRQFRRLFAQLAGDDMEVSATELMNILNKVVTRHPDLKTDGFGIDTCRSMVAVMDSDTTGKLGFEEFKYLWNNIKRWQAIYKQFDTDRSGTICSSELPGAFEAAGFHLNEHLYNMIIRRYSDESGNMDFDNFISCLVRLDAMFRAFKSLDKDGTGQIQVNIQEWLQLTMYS
Excerpt: as §3

[10] = molecular target: T2, Cathepsin B; experiment: Cathepsin B KI (Table 1B(ii)); type: biochemical; conditions: read-out: KI CathB
Excerpt: as §3

[11] = 50 mM Tris-HCl pH 7.5, 20 mM EDTA, 9% DMSO, substrate Nα-Benzoyl-Arg-NA, read-out: Ki P (Papain), values marked e
[12] = 0.05M Tris-HCl pH 7.5, 2 mM EDTA, 1% DMSO, substrate Nα-Benzoyl-Arg-AMC, read-out: Ki P (Papain)

PP Elastase, sequence (P00772 27-266): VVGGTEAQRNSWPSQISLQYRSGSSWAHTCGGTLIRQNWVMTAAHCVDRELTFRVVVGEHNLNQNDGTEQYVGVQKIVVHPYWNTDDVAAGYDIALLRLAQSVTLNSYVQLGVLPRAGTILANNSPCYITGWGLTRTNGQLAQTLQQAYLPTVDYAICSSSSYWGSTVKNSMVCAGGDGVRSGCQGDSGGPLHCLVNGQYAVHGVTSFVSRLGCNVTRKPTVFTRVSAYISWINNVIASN

| Ki [5] | Ki [7] | t1/2 plasma [8] | Ki [9] | Ki [10] | Structure (SMILES) | Ki [4] | Ki [1, 12] | inhibition of Calpain within platelets ([2]; 100 μM) | other results |
| --- | --- | --- | --- | --- | --- | --- | --- | --- | --- |
| – | – | – | – | – | CCOC(=O)C(=O)C(Cc1ccccc1)NC(=O)c1ccccc1 (racemic) [Bz-DL-Phe-COOEt, Bz-DL-Phe-CO2 Et] | 64 µM | – | – | Ki [1, 11]: 500 µM; effect on intracellular (platelet) Calpain [2]: failed to exhibit Calpain inhibitory activity; inhibition of spectrin proteolysis in crude brain extracts [3]: significant inhibition |
| – | – | – | – | – | COC(=O)CCC(=O)NC(C(=O)N1CCCC1C(=O)NC(Cc1ccccc1)C(=O)C(=O)OC)C(C)C (racemic) [MeO-Suc-Val-Pro-DL-Phe-COOMe, MeO-Suc-Val-Pro-DL-Phe-CO2 Me] | 0.1 µM | 1.1 µM | – | Ki [1, 11]: 2.9 µM; effect on intracellular (platelet) Calpain [2]: failed to exhibit Calpain inhibitory activity; inhibition of spectrin proteolysis in crude brain extracts [3]: significant inhibition |
| – | – | – | – | – | CCC(NC(=O)[C@H](C)NC(=O)[C@H](C)NC(=O)OCc1ccccc1)C(=O)C(=O)OCc1ccccc1 (mixture of isomers) [Z-Ala-Ala-DL-Abu-COOBzl, Z-Ala-Ala-DL-Abu-CO2 Bzl] | 60 µM | 30 µM | significant inhibition | – |
| – | – | – | – | – | CCCC(NC(=O)C(C)NC(=O)C(C)NC(=O)OCc1ccccc1)C(=O)C(=O)OCC (racemic) [Z-Ala-Ala-DL-Nva-COOEt, Z-Ala-Ala-DL-Nva-CO2 Et] | 0.1 µM | 30 µM | – | – |
| – | – | – | – | – | CCOC(=O)C(=O)C(C)NC(=O)[C@@H]1CCCN1C(=O)[C@H](C)NC(=O)OCc1ccccc1 (mixture of isomers) [Z-Ala-Pro-DL-Ala-COOEt, Z-Ala-Pro-DL-Ala-CO2 Et] | 66 µM | 26 µM | – | – |
| – | – | – | – | – | CCOC(=O)C(=O)C(C)NC(=O)C(Cc1ccccc1)NC(=O)OCc1ccccc1 (racemic) [Z-Phe-DL-Ala-COOEt] | 3.2 µM | 3.6 µM | – | – |
| – | – | – | – | – | CCOC(=O)C(=O)C(Cc1ccccc1)NC(=O)C(Cc1ccccc1)NC(=O)OCc1ccccc1 (racemic) [Z-Phe-DL-Phe-COOEt] | 0.1 µM | 1.8 µM | – | – |
| 35 µM | 47 µM | > 60 min | 16 µM | 25 µM | CCOC(=O)C(=O)C(CC)NC(=O)C(CC(C)C)NC(=O)C(CC(C)C)NS(=O)(=O)c1ccc2ccccc2c1 (stereo not drawn) [2-NapSO2 -Leu-Leu-Abu-COOEt] | – | – | significant inhibition | Ki [6]: 1.4 µM; IC50 [2]: 100 µM |
| 25 µM | 28 µM | 30 min | 33 µM | 69 µM | CCOC(=O)C(=O)[C@H](CC)NC(=O)[C@H](CC(C)C)NC(=O)[C@H](CC(C)C)NS(=O)(=O)c1ccc(C)cc1 [Tos-Leu-Leu-Abu-COOEt] | – | – | – | IC50 [2]: 30 µM |

| Structure (SMILES) | Ki [5] | Ki [7] | t1/2 plasma [8] | Ki [9] | Ki [10] | Ki [4] | Ki [1, 12] | inhibition of Calpain within platelets ([2]; 100 μM) | other results |
| --- | --- | --- | --- | --- | --- | --- | --- | --- | --- |
| CCCCOC(=O)C(=O)[C@H](Cc1ccccc1)NC(=O)[C@H](CC(C)C)NC(=O)OCc1ccccc1 [Z-Leu-Phe-COOnBu, Z-Leu-Phe-CO2 Bu] | 0.15 µM | > 100 µM | 7.7 min | 5 µM | 15 µM | – | – | significant inhibition | Ki [6]: 1.1 µM; platelet assay, semi-quantitative ([2]; semi-quantitative, 100 μM): +++ |
